Experimental findings from US8357717B2, “Spiro group-containing amide compounds having bradykinin 1 receptor (B1R) activity” (Gruenenthal GmbH, priority 2009, dated 2013) are described below.

By inhibition is commonly meant the change of the read-out against control, counted positive when it falls.

Experiment [1] deals with T1, B1R receptor of the rat (rB1R) (Rattus norvegicus, UniProt P97583).
T1 construct: expressed in transfected cells; host or cells: CHO K1 cells, stably transfected
T1 sequence (P97583 1-337): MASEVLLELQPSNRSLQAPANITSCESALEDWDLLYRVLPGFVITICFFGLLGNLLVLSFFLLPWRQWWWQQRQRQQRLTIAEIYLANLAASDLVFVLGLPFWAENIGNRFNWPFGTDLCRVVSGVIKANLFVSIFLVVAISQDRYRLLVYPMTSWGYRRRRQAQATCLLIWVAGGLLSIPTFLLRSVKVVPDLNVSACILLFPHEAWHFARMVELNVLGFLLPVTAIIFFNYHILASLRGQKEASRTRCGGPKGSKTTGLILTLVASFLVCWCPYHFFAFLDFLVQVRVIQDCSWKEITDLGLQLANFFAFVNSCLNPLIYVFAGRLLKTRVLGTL
Description: FLIPR Ca2+ functional study on bradykinin receptor 1, rB1R cells (CHO K1). It is filed as cell-based. The following applies: 10 μM test substance; CHO K1 cells with rat B1R; agonist Des-Arg9-bradykinin at EC80; read-out: B1R antagonism, rat [10 μM] % inhibition. The protocol: (§1) The agonistic or antagonistic activity of substances can be quantified on the bradykinin receptor 1 (B1R) of the species human and rat using ectopically expressing cell lines (CHO K1 cells) and with the aid of a Ca^2+-sensitive dye (Fluo-4) using a fluorescent imaging plate reader (FLIPR). The indication in % activation is based on the Ca^2+ signal after addition of Lys-Des-Arg^9-bradykinin (0.5 nM) or Des-Arg^9-bradykinin (100 nM). Antagonists lead to suppression of the Ca^2+ influx after the addition of the agonist. % Inhibition compared with the maximum achievable inhibition is indicated.
(§2) The agonistic or antagonistic activity of substances can be determined on the bradykinin receptor 1 (B1R) of the species human and rat using the following assay. According to this assay, the Ca^2+ influx through the channel is quantified with the aid of a Ca^2+-sensitive dye (Fluo-4 type, Molecular Probes Europe BV, Leiden, Netherlands) using a Fluorescent Imaging Plate Reader (FLIPR, Molecular Devices, Sunnyvale, USA).
(§3) Chinese hamster ovary cells (CHO K1 cells) which have been stably transfected with the human B1R gene (hB1R cells) or with the B1R gene of the rat (rB1R cells) are used. For functional studies, the cells are plated out on black 96-well plates having a clear base (BD Biosciences, Heidelberg, Germany or Greiner, Frickenhausen, Germany) in a density of 20,000-35,000 cells/well. The cells are left overnight at 37° C. and with 5% CO2 in culture medium (hB1R cells: Nutrient Mixture Ham's F12, Gibco Invitrogen GmbH, Karlsruhe, Germany or DMEM, Sigma-Aldrich, Taufkirchen, Germany; rB1R cells: D-MEM/F12, Gibco Invitrogen GmbH, Karlsruhe, Germany), with 10 vol. % FBS (fetal bovine serum, Gibco Invitrogen GmbH, Karlsruhe, Germany or PAN Biotech GmbH, Aidenbach, Germany). On the following day, the cells are loaded for 60 minutes at 37° C. with 2.13 μM Fluo-4 (Molecular Probes Europe BV, Leiden, Netherlands) in HBSS buffer (Hank's buffered saline solution, Gibco Invitrogen GmbH, Karlsruhe, Germany) […] (Sigma-Aldrich, Taufkirchen, Germany) and 10 mM HEPES (Sigma-Aldrich, Taufkirchen, Germany). The plates are then washed twice with HBSS buffer, and HBSS buffer additionally containing 0.1% BSA (bovine serum albumin; Sigma-Aldrich, Taufkirchen, Germany), 5.6 mM glucose and 0.05% gelatin (Merck KGaA, Darmstadt, Germany) is added to the plates. After incubation for a further 20 minutes at room temperature, the plates are inserted into the FLIPR for Ca^2+ measurement. Alternatively, washing is carried out with buffer A (15 mM HEPES, 80 mM NaCl, 5 mM KCl, 1.2 mM CaCl2, 0.7 mM MgSO4, 2 g/l glucose, 2.5 mM probenecid) followed by loading with buffer A with added 2.5 μM Fluo-4 and 0.025% Pluronic F127 (Sigma-Aldrich, Taufkirchen, Germany). The cells are then washed twice with buffer A and incubated for 30 minutes at room temperature with buffer A additionally containing 0.05% BSA and 0.05% gelatin and are then inserted into the FLIPR for Ca^2+ measurement. The Ca^2+-dependent fluorescence is measured before and after the addition of substances (λex=488 nm, λem=540 nm). Quantification is carried out by measuring the highest fluorescence intensity (FC, fluorescence counts) over time.
(§4) The FLIPR protocol consists of two substance additions. Test substances (10 μM) are first pipetted onto the cells and the Ca^2+ influx is compared with the control (hB1R: Lys-Des-Arg^9-bradykinin >=50 nM; rB1R: Des-Arg^9-bradykinin 10 μM). This gives the activation in %, based on the Ca^2+ signal after addition of Lys-Des-Arg^9-bradykinin (>=50 nM) or Des-Arg^9-bradykinin (10 μM). After 10-20 minutes' incubation, Lys-Des-Arg^9-bradykinin (hB1R) or Des-Arg^9-bradykinin (rB1R) is applied in the concentration of the EC80, and the influx of Ca^2+ is likewise determined. Antagonists lead to suppression of the Ca^2+ influx. The % inhibition compared with the maximum achievable inhibition is calculated. […]

The target in experiment [2] is T2, human B1R receptor (hB1R) (Homo sapiens, UniProt P46663).
T2 construct: expressed in transfected cells; host or cells: CHO K1 cells, stably transfected
T2 sequence (P46663 1-353): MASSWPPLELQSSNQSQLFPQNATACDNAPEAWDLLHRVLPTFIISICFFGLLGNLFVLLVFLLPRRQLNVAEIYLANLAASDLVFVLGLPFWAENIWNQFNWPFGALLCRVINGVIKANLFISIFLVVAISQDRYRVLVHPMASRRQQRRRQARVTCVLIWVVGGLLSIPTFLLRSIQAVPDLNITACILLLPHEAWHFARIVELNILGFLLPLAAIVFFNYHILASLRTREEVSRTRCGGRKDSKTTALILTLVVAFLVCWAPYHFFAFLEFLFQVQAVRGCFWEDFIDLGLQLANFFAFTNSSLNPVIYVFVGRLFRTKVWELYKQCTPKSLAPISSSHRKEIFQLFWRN
Description: FLIPR Ca2+ functional study on bradykinin receptor 1, hB1R cells (CHO K1). Type of experiment: cell-based. To be noted: CHO-K1, 10 μM test substance; CHO K1 cells with human B1R; agonist Lys-Des-Arg9-bradykinin at EC80; read-out: B1R antagonism, human [10 μM] % inhibition. On the procedure: as §1, §2, §3, §4

For the compound `COc1cc(C)c(S(=O)(=O)N2CCn3cnc(C(=O)N4CCC5(CC4)CCN(c4ccncc4)CC5)c3C2)c(C)c1` [Compound G-72, [7-[(4-Methoxy-2,6-dimethyl-phenyl)sulfonyl]-5,6,7,8-tetrahydro-imidazo[1,5-a]pyrazin-1-yl]-(9-pyridin-4-yl-3,9-diazaspiro[5.5]undecan-3-yl)-methanone], the inhibition at 10 µM came out at 104% in experiment [1] and 100% in experiment [2].
The corresponding values for `O=C(c1ccc2c(c1)CN(S(=O)(=O)c1ccc(Cl)c3ccccc13)CC2)N1CCC2(CC1)CCN(c1ccncc1)CC2` [Compound G-50, (2-(4-Chloronaphthalin-1-ylsulfonyl)-1,2,3,4-tetrahydroisoquinolin-7-yl)(9-(pyridin-4-yl)-3,9-diazaspiro[5.5]undecan-3-yl)methanone] are 91% and 69%.
Turning to `O=C(c1ccc2c(c1)CN(S(=O)(=O)c1ccc(F)c3ccccc13)CC2)N1CCC2(CC1)CCN(c1ccncc1)CC2` [Compound G-56, (2-(4-Fluoronaphthalin-1-ylsulfonyl)-1,2,3,4-tetrahydroisoquinolin-7-yl)(9-(pyridin-4-yl)-3,9-diazaspiro[5.5]undecan-3-yl)methanone], the inhibition at 10 µM in experiment [1] turned out to be 90%; in experiment [2], 87%.
The corresponding values for `O=C(c1cc2c(s1)CCN(C(=O)c1ccccc1Cl)C2)N1CCC2(CC1)CCN(c1ccncc1)CC2` [Compound G-15, (5-(2-Chlorobenzoyl)-4,5,6,7-tetrahydrothieno[3,2-c]pyridin-2-yl)(9-(pyridin-4-yl)-3,9-diazaspiro[5.5]undecan-3-yl)methanone] are 81% and 66%.
For `O=C(c1ccc2c(c1)CN(S(=O)(=O)c1cccc3c(Cl)cccc13)CC2)N1CCC2(CC1)CCN(c1ccncc1)CC2` [Compound G-62, (2-(5-Chloronaphthalin-1-ylsulfonyl)-1,2,3,4-tetrahydroisoquinolin-7-yl)(9-(pyridin-4-yl)-3,9-diazaspiro[5.5]undecan-3-yl)methanone] the same measures were 78% and 44%.
For `O=C(Nc1ccc(Cl)c(Cl)c1)N1CCc2ccc(C(=O)N3CCC4(CC3)CCN(c3ccncc3)CC4)cc2C1` [Compound G-55, N-(3,4-dichlorophenyl)-7-(9-(pyridin-4-yl)-3,9-diazaspiro[5.5]undecane-3-carbonyl)-3,4-dihydroisoquinoline-2(1H)-carboxamide] the same measures were 94% and 92%.
For the compound `O=C(Cc1ccc2c(c1)N(S(=O)(=O)c1cccc3ccccc13)CCC2)N1CCC2(CCC(N3CCC3)CC2)CC1` [Compound G-54, 1-(9-(Azetidin-1-yl)-3-azaspiro[5.5]undecan-3-yl)-2-(1-(naphthalin-1-ylsulfonyl)-1,2,3,4-tetrahydroquinolin-7-yl)ethanone], the inhibition at 10 µM came to 55% in experiment [1] and 57% in experiment [2].
The corresponding values for `CC(C)(C)c1ccc(C(=O)N2CCc3ccc(C(=O)N4CCC5(CC4)CCN(c4ccncc4)CC5)cc3C2)s1` [Compound G-63, (5-tert-Butylthiophen-2-yl)(7-(9-(pyridin-4-yl)-3,9-diazaspiro[5.5]undecane-3-carbonyl)-3,4-dihydroisoquinolin-2(1H)-yl)methanone] are 80% and 83%.
For the compound `O=C(Nc1ccc(Cl)c(Cl)c1)N1CCc2onc(C(=O)N3CCC4(CC3)CCN(c3ccncc3)CC4)c2C1` [Compound G-46, N-(3,4-Dichlorophenyl)-3-(9-(pyridin-4-yl)-3,9-diazaspiro[5.5]undecane-3-carbonyl)-6,7-dihydroisoxazolo[4,5-c]pyridine-5(4H)-carboxamide], the inhibition at 10 µM in experiment [1] amounted to 57%; in experiment [2], 35%.
The corresponding values for `COc1cc(C)c(S(=O)(=O)N2CCc3ccc(CC(=O)N4CCC5(CC4)CCN(c4ccncc4)CC5)cc32)c(C)c1` [Compound G-20, 2-(1-(4-Methoxy-2,6-dimethylphenylsulfonyl)indolin-6-yl)-1-(9-(pyridin-4-yl)-3,9-diazaspiro[5.5]undecan-3-yl)ethanone] are 102% and 100%.
The corresponding values for `Cc1cc(S(=O)(=O)N2CCc3ccc(C(=O)N4CCC5(CC4)CCN(c4ccncc4)CC5)cc32)c(C)cc1Cl` [G_CC-013, (1-(4-Chloro-2,5-dimethylphenylsulfonyl)indolin-6-yl)(9-(pyridin-4-yl)-3,9-diazaspiro[5.5]undecan-3-yl)methanone] are 99% and 87%.
For `O=C(Cc1ccccc1Cl)N1CCc2ccc(C(=O)N3CCC4(CC3)CCN(c3ccncc3)CC4)cc2C1` [Compound G-43, 2-(2-Chlorophenyl)-1-(7-(9-(pyridin-4-yl)-3,9-diazaspiro[5.5]undecane-3-carbonyl)-3,4-dihydroisoquinolin-2(1H)-yl)ethanone] the same measures were 102% and 99%.
On to `COc1cc(C)c(S(=O)(=O)N2CCOc3ccc(CC(=O)N4CCC5(CC4)CCN(c4ccncc4)CC5)cc32)c(C)c1` [Compound G-19, 2-(4-(4-Methoxy-2,6-dimethylphenylsulfonyl)-3,4-dihydro-2H-benzo[b][1,4]oxazin-6-yl)-1-(9-(pyridin-4-yl)-3,9-diazaspiro[5.5]undecan-3-yl)ethanone], for which the inhibition at 10 µM in experiment [1] and in experiment [2] was 100% throughout.
As for `Cc1cccc(Cl)c1S(=O)(=O)N1Cc2ccc(C(=O)N3CCC4(CC3)CCN(c3ccncc3)CC4)cc2C1` [Compound G-68, [2-[(2-Chloro-6-methyl-phenyl)sulfonyl]-2,3-dihydro-1H-isoindol-5-yl]-(9-pyridin-4-yl-3,9-diazaspiro[5.5]undecan-3-yl)-methanone], the inhibition at 10 µM was 81% in experiment [1] and 90% in experiment [2].
